Measured values: paper PMC7179274, “6′-β-Fluoro-Homoaristeromycin and 6′-Fluoro-Homoneplanocin A Are Potent Inhibitors of Chikungunya Virus Replication through Their Direct Effect on Viral Nonstructural Protein 1” (Antimicrobial Agents and Chemotherapy, 2020)
Read-outs that look alike come from different tables or passages of the source.

Tested on: rCHIKV mutants
Assay: microbe, parasite or virus in culture
Assay type: cell-based, Chikungunya virus
Conditions: for EC50: read-out: Mean EC50 ± SD

With `Nc1ncnc2c1ncn2C1C(F)=C(CCO)C(O)C1O` (centres unmarked) [FHNA, 6′-fluoro-homoneplanocin A] the Fold resistance (rCHIKV nsP1-G230R + nsP1-K299E + nsP3-*524R, EC50 mutant/EC50 wt) was 122, the EC50 (rCHIKV nsP1-G230R + nsP1-K299E + nsP3-*524R) was 25600 ± 100 nM and the Fold resistance (rCHIKV nsP1-G230R + nsP1-K299E, EC50 mutant/EC50 wt) was 87. For the same molecule, the EC50 (rCHIKV nsP1-G230R + nsP1-K299E) was 18200 ± 4200 nM, the Fold resistance (rCHIKV nsP1-G230R, EC50 mutant/EC50 wt) was 2 and the EC50 (rCHIKV nsP1-G230R) was 500 ± 330 nM. The Fold resistance (rCHIKV nsP1-K299E, EC50 mutant/EC50 wt) was 2, the EC50 (rCHIKV nsP1-K299E) was 500 ± 80 nM and the Fold resistance (rCHIKV nsP1-L455P, EC50 mutant/EC50 wt) was 5. For the same molecule, the EC50 (rCHIKV nsP1-L455P) was 1100 ± 1100 nM, the Fold resistance (rCHIKV nsP1-R171Q + nsP2-A511S + nsP3-H342Q, EC50 mutant/EC50 wt) was 49 and the EC50 (rCHIKV nsP1-R171Q + nsP2-A511S + nsP3-H342Q) was 10200 ± 2600 nM. It also gave a Fold resistance (rCHIKV nsP1-R171Q + nsP2-A511S, EC50 mutant/EC50 wt) of 33, an EC50 (rCHIKV nsP1-R171Q + nsP2-A511S) of 6900 ± 2600 nM and a Fold resistance (rCHIKV nsP1-R171Q + nsP3-A137V, EC50 mutant/EC50 wt) of 18. The EC50 (rCHIKV nsP1-R171Q + nsP3-A137V) was 3900 ± 1300 nM, the Fold resistance (rCHIKV nsP1-R171Q, EC50 mutant/EC50 wt) was 3 and the EC50 (rCHIKV nsP1-R171Q) was 580 ± 370 nM. It also gave a Fold resistance (rCHIKV nsP2-A511S + nsP3-H342Q, EC50 mutant/EC50 wt) of 1, a Fold resistance (rCHIKV nsP2-A511S, EC50 mutant/EC50 wt) of 9 and an EC50 (rCHIKV nsP2-A511S) of 1900 ± 600 nM. For the same molecule, the Fold resistance (rCHIKV nsP2-T675A + nsP3-H342Q (H342Q reverted back to wt), EC50 mutant/EC50 wt) was 36, the EC50 (rCHIKV nsP2-T675A + nsP3-H342Q (H342Q reverted back to wt)) was 7600 ± 200 nM and the Fold resistance (rCHIKV nsP2-T675A + nsP3-H342Q + nsP3-*524R, EC50 mutant/EC50 wt) was 48. It also gave an EC50 (rCHIKV nsP2-T675A + nsP3-H342Q + nsP3-*524R) of 10100 ± 6800 nM, a Fold resistance (rCHIKV nsP2-T675A, EC50 mutant/EC50 wt) of 4 and an EC50 (rCHIKV nsP2-T675A) of 800 ± 80 nM. For the same molecule, the Fold resistance (rCHIKV nsP3-*524R, EC50 mutant/EC50 wt) was 40, the EC50 (rCHIKV nsP3-*524R) was 8500 ± 2300 nM and the Fold resistance (rCHIKV nsP3-G177R, EC50 mutant/EC50 wt) was 2. For the same molecule, the EC50 (rCHIKV nsP3-G177R) was 510 ± 20 nM, the Fold resistance (rCHIKV nsP3-H342Q, EC50 mutant/EC50 wt) was 5 and the EC50 (rCHIKV nsP3-H342Q) was 940 ± 10 nM. The Fold resistance (rCHIKV wt, EC50 recombinant mutant/EC50 wt) was 1 and the EC50 (rCHIKV wt, VeroE6, MOI 0.05) was 210 ± 70 nM.
